Source: patent US8124788B2, “Spirocyclic cyclohexane compounds with analgesic activity” (Gruenenthal GmbH, priority 2006, dated 2012)
Counter-ions that a name gives are not always drawn.

Experiments:
human μ opiate receptor = target: T1, human μ opiate receptor (Homo sapiens, UniProt P35372); assay: Affinity for the human μ opiate receptor ([3H]-naloxone displacement, CHO-K1 membrane preparation, SPA); type: binding; conditions: for inhibition at 1 µM / μ opioid receptor [1 μM], % inhibition: 1 μM test substance, displacement of [3H]-naloxone; for inhibition at 1 µM: read-out: μ opioid receptor [1 μM], % inhibition; for Ki: Cheng-Prusoff conversion from IC50, read-out: μ opioid receptor, Ki
T1 construct: purchased PerkinElmer Life Sciences, Zaventem, Belgium RB-HOM; host or cells: CHO-K1 cells (recombinant expression)
How it was run: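 CHO-K1 membranes expressing human μ receptor (15-40 μg protein/250 μl) were incubated 90 min at room temperature with 1 nmol/l [³H]-naloxone and WGA-SPA beads in 50 mmol/l Tris-HCl with 0.06% BSA; 100 μmol/l naloxone defined nonspecific binding. Percent displacement measured at 1 μmol/l; IC50 converted to Ki via Cheng-Prusoff.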

Noradrenaline reuptake = target: T2, Noradrenaline reuptake (Rattus norvegicus, UniProt Q63380); assay: Inhibition of noradrenaline (NA) reuptake in rat brain synaptosomes; type: biochemical; conditions: synaptosomes from rat hypothalamus
T2 construct: synaptosomes are freshly isolated from areas of the rat brain; from tissue; host or cells: P2 synaptosome fraction from the hypothalamus of male rat brains
Experimental: (§1) In order to be able to carry out these in vitro studies, synaptosomes are freshly isolated from areas of the rat brain. In each case a so-called “P2” fraction prepared in accordance with the instruction of Gray and Whittaker (E. G. Gray and V. P. Whittaker (1962) J. Anat. 76, 79-88) is prepared. For the NA uptake, these vesicular particles are isolated from the hypothalamus of male rat brains.
(§2) A detailed description of the method can be found in the literature (M. Ch. Frink, H.-H. Hennies, W. Englberger, M. Haurand and B. Wilffert (1996) Arzneim.-Forsch./Drug Res. 46 (III), 11, 1029-1036).

Serotonin reuptake = target: T3, Serotonin reuptake (Rattus norvegicus, UniProt P31652); assay: Inhibition of serotonin (5HT) reuptake in rat brain synaptosomes; type: biochemical
T3 construct: synaptosomes are freshly isolated from areas of the rat brain; from tissue
Experimental: as §1, §2

[1] = system: phenylquinone-induced writhing in mice; assay: Phenylquinone writhing; type: in vivo; conditions: 10 mg/kg intravenously, male NMRI mice
Experimental: The analgesic activity was investigated in the phenylquinone-induced writhing in mice (modified in accordance with I. C. Hendershot und J. Forsaith (1959) J. Pharmacol. Exp. Ther. 125, 237-240), Male NMRI mice weighing from 25 to 30 g were used for this. Groups of 10 animals per substance dose received 0.3 ml/mouse of a 0.02% strength aqueous solution of phenylquinone (phenylbenzoquinone, Sigma, Deisenhofen; preparation of the solution with the addition of 5% ethanol and storage in a water bath at 45° C.) administered intraperitoneally 10 minutes after intravenous administration of the test substances. The animals were placed individually in observation cages. The number of pain-induced stretching movements (so-called writhing reactions=straightening of the body with stretching of the rear extremities) was counted by means of a push-button counter 5 to 20 minutes after the administration of phenylquinone. Animals which receive only 5% strength Cremophor solution were also run as a control. All the substances were tested in the standard dosage of 10 mg/kg. The percentage inhibition (% inhibition) of the writhing reaction by a substance was calculated according to the following formula: […]

T3 sequence (P31652 whole entry): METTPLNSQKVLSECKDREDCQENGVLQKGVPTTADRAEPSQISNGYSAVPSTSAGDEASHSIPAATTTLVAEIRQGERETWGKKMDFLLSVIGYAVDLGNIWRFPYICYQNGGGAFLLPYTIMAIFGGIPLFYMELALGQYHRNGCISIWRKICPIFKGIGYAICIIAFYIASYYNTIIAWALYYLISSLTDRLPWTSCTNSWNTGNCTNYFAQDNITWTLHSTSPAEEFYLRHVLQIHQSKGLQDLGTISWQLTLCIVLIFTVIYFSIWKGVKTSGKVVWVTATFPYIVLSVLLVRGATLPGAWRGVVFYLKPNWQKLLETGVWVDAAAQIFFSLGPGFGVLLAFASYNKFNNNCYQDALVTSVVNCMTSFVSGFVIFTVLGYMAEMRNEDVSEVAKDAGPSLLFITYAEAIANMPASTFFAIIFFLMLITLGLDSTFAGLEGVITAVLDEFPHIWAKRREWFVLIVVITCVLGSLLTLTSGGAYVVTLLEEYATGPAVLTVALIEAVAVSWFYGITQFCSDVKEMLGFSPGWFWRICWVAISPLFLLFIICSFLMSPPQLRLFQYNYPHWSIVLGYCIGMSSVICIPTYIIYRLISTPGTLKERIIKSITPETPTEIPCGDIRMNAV
T1 sequence (P35372 whole entry): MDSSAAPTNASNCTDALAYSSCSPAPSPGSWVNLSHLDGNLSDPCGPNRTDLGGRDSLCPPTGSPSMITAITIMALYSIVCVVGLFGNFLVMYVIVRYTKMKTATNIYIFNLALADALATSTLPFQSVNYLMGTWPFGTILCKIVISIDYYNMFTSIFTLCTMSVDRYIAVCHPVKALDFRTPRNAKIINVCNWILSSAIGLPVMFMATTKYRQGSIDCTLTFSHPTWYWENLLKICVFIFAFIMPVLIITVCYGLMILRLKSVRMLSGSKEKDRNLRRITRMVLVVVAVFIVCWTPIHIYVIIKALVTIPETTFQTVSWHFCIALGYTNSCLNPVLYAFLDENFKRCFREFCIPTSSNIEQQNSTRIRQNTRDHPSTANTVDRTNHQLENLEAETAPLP
T2 sequence (Q63380 1-617): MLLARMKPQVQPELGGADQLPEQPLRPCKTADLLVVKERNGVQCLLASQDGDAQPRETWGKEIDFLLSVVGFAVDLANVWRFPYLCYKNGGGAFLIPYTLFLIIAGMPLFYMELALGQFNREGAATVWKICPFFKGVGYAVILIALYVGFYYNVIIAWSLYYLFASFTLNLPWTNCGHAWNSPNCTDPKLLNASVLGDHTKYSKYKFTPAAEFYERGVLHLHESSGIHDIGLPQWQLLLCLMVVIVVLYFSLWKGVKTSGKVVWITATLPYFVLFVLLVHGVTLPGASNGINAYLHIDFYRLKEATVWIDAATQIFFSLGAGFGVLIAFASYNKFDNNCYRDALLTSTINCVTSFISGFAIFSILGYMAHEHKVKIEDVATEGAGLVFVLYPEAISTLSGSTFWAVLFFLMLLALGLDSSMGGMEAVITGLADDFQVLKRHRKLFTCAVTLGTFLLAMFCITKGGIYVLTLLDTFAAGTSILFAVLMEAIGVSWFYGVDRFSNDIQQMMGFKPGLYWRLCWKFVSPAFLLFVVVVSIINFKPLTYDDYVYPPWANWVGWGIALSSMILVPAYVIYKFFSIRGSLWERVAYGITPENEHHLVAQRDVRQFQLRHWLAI

**Q.** What does the source list for CN(C)C(c1ccc(Cl)cc1)C1CCC2(CC1)OCCc1c2[nH]c2ccc(F)cc12 (centres unmarked) [Compound 38, 6-Fluoro-1,1-[3-(dimethylamino-(4-chlorophenyl)-methyl)-pentamethylene]-1,3,4,9-tetrahydropyrano[3,4-b]indole]?
**A.** inhibition at 1 µM (human μ opiate receptor): 84%; Ki (human μ opiate receptor): 260 nM; inhibition at 10 µM (Noradrenaline reuptake): 59%; inhibition at 10 µM (Serotonin reuptake): 57%

**Q.** What does the source list for CC1Cc2c([nH]c3ccc(F)cc23)C2(CCC(C(c3ccc(F)cc3)N(C)C)CC2)O1 (centres unmarked) [Compound 51, 6-Fluoro-3-methyl-1,1-[3-(dimethylamino-(4-fluorophenyl) -methyl)-pentamethylene]-1,3,4,9-tetrahydropyrano[3,4-b]indole]?
**A.** μ opioid receptor [1 μM], % inhibition (human μ opiate receptor): 46%; Serotonin reuptake, % inhibition [10 μM] (Serotonin reuptake): 39%

**Q.** CN(C)C(c1ccc(Cl)cc1)C1CCC2(CC1)NCCc1c2[nH]c2ccccc12 (centres unmarked) [Compound 22, 1,1-[3-(4-Chlorophenyl-(dimethylamino)-methyl)-pentamethylene]-3,4-dihydro-1H-2,9-diazafluorene] was tested. Which “μ opioid receptor [1 μM], % inhibition” value (human μ opiate receptor) did it give?
**A.** The value was 33%.

**Q.** And the “Serotonin reuptake, % inhibition [10 μM]” value (Serotonin reuptake)?
**A.** Its value is 76%.

**Q.** Which results are given for CN(C)C(c1cccc(F)c1)C1CCC2(CC1)OCCc1c2[nH]c2ccccc12 (centres unmarked) [Compound 26, 1,1-[3-(Dimethylamino-(3-fluorophenyl)-methyl)-pentamethylene]-1,3,4,9-tetrahydro-pyrano[3,4-b]indole Citrate]?
**A.** inhibition at 1 µM (human μ opiate receptor): 94%; Ki (human μ opiate receptor): 33 nM; inhibition at 10 µM (Noradrenaline reuptake): 49%; inhibition at 10 µM (Serotonin reuptake): 59%

**Q.** Which results are given for CN(C)C(c1ccc(F)cc1)C1CCC2(CC1)OCCc1c2[nH]c2ccccc12 (centres unmarked) [Compound 25, 1,1-[3-(Dimethylamino-(4-fluorophenyl)-methyl)-pentamethylene]-1,3,4,9-tetrahydro-pyrano[3,4-b]indole]?
**A.** inhibition at 1 µM (human μ opiate receptor): 86%; Ki (human μ opiate receptor): 350 nM; inhibition at 10 µM (Serotonin reuptake): 68%

**Q.** How did the inhibition at 1 µM (human μ opiate receptor) turn out when CN(C)C(c1cccs1)C1CCC2(CC1)OCCc1c2[nH]c2ccccc12 (centres unmarked) [Compound 29, 1,1-[3-(Dimethylamino-(thiophen-2-yl)-methyl)-pentamethylene]-1,3,4,9-tetrahydro-pyrano[3,4-b]indole] was run?
**A.** The inhibition at 1 µM was 99%.

**Q.** What about the Ki (human μ opiate receptor) of the same compound?
**A.** Its Ki is 15 nM.

**Q.** And the inhibition at 10 µM (Serotonin reuptake)?
**A.** Its inhibition at 10 µM is 45%.

**Q.** And the “% inhibition of the writhing reaction (dosage in mg/kg intravenously)” value (“% inhibition of the writhing reaction” below) [1]?
**A.** The value was 73 (10) %.

**Q.** CN(C)C(CCc1ccccc1)C1CCC2(CC1)OCCc1c2[nH]c2ccccc12 (centres unmarked) [Compound 28, 1,1-[3-(Dimethylamino-(phenylethyl)-methyl)-pentamethylene]-1,3,4,9-tetrahydropyrano[3,4-b]indole] was tested. Which inhibition at 1 µM (human μ opiate receptor) did it give?
**A.** Its inhibition at 1 µM is 92%.

**Q.** And the Ki (human μ opiate receptor)?
**A.** The Ki was 110 nM.

**Q.** What about the inhibition at 10 µM (Noradrenaline reuptake) of the same compound?
**A.** The inhibition at 10 µM was 52%.

**Q.** And the inhibition at 10 µM (Serotonin reuptake)?
**A.** Its inhibition at 10 µM is 57%.

**Q.** CN(C)C(c1ccc(Cl)cc1)C1CCC2(CC1)OCCc1c2[nH]c2ccccc12 (centres unmarked) [Compound 30, 1,1-[3-(Dimethylamino-(4-chlorophenyl)-methyl)-pentamethylene]-1,3,4,9-tetrahydro-pyrano[3,4-b]indole] was tested. Which inhibition at 1 µM (human μ opiate receptor) did it give?
**A.** The inhibition at 1 µM was 84%.

**Q.** And the Ki (human μ opiate receptor)?
**A.** The Ki was 170 nM.

**Q.** What about the inhibition at 10 µM (Serotonin reuptake) of the same compound?
**A.** The inhibition at 10 µM was 56%.

**Q.** And the “% inhibition of the writhing reaction” value [1]?
**A.** Its value is 45 (10) %.

**Q.** How did the “μ opioid receptor [1 μM], % inhibition” value (human μ opiate receptor) turn out when CN(C)C(c1cccs1)C1CCC2(CC1)NCCc1c2[nH]c2ccccc12 (centres unmarked) [Compound 21, 1,1-[3-(Dimethylamino-(thiophen-2-yl)-methyl)-pentamethylene]-3,4-dihydro-1H-2,9-diazafluorene] was run?
**A.** The value was 62%.

**Q.** What about the “Noradrenaline reuptake, % inhibition [10 μM]” value (Noradrenaline reuptake) of the same compound?
**A.** Its value is 50%.

**Q.** What about the “Serotonin reuptake, % inhibition [10 μM]” value (Serotonin reuptake) of the same compound?
**A.** Its value is 72%.

**Q.** For Cc1ccc2[nH]c3c(c2c1)CC(C)OC31CCC(C(c2ccc(F)cc2)N(C)C)CC1 (centres unmarked) [Compound 40, 3,6-Dimethyl-1,1-[3-(dimethylamino-(4-fluorophenyl)-methyl) -pentamethylene]-1,3,4,9-tetrahydropyrano[3,4-b]indole], which “μ opioid receptor [1 μM], % inhibition” value (human μ opiate receptor) is on record?
**A.** The value was 68%.

**Q.** And the “Serotonin reuptake, % inhibition [10 μM]” value (Serotonin reuptake)?
**A.** Its value is 47%.

**Q.** Which inhibition at 1 µM (human μ opiate receptor) does the source give for CC1Cc2c([nH]c3ccc(F)cc23)C2(CCC(C(c3ccccc3)N(C)C)CC2)O1 (centres unmarked) [Compound 53, 6-Fluoro-3-methyl-1,1-[3-(dimethylamino-(phenyl)-methyl) -pentamethylene]-1,3,4,9-tetrahydropyrano[3,4-b]indole] here?
**A.** Its inhibition at 1 µM is 97%.

**Q.** What about the Ki (human μ opiate receptor) of the same compound?
**A.** Its Ki is 82 nM.

**Q.** And the inhibition at 10 µM (Noradrenaline reuptake)?
**A.** Its inhibition at 10 µM is 47%.

**Q.** What about the inhibition at 10 µM (Serotonin reuptake) of the same compound?
**A.** The inhibition at 10 µM was 60%.

**Q.** Which inhibition at 1 µM (human μ opiate receptor) does the source give for Cc1ccc2[nH]c3c(c2c1)CC(C)OC31CCC(C(c2ccccc2)N(C)C)CC1 (centres unmarked) [Compound 42, 3,6-Dimethyl-1,1-[3-(dimethylamino-(phenyl)-methyl)-pentamethylene]-1,3,4,9-tetrahydropyrano[3,4-b]indole Citrate] here?
**A.** Its inhibition at 1 µM is 101%.

**Q.** What about the Ki (human μ opiate receptor) of the same compound?
**A.** The Ki was 29 nM.

**Q.** And the inhibition at 10 µM (Serotonin reuptake)?
**A.** The inhibition at 10 µM was 64%.

**Q.** CN(C)C(c1ccc(F)cc1)C1CCC2(CC1)OCCc1c2[nH]c2ccc(F)cc12 (centres unmarked) [Compound 35, 6-Fluoro-1,1-[3-(dimethylamino-(4-fluorophenyl)-methyl) -pentamethylene]-1,3,4,9-tetrahydropyrano[3,4-b]indole] was tested. Which inhibition at 1 µM (human μ opiate receptor) did it give?
**A.** The inhibition at 1 µM was 98%.

**Q.** What about the Ki (human μ opiate receptor) of the same compound?
**A.** Its Ki is 67 nM.

**Q.** What about the inhibition at 10 µM (Noradrenaline reuptake) of the same compound?
**A.** The inhibition at 10 µM was 50%.

**Q.** What about the inhibition at 10 µM (Serotonin reuptake) of the same compound?
**A.** The inhibition at 10 µM was 55%.

**Q.** With CN(C)C(c1ccc(F)cc1)C1CCC2(CC1)NCCc1c2[nH]c2ccccc12 (centres unmarked) [Compound 17, 1,1-[3-(Dimethylamino-(4-fluorophenyl)methyl)-pentamethylene]-3,4-dihydro-1H-2,9-diazafluorene] as the compound, how does the “μ opioid receptor [1 μM], % inhibition” value (human μ opiate receptor) read?
**A.** The value was 46%.

**Q.** And the “Serotonin reuptake, % inhibition [10 μM]” value (Serotonin reuptake)?
**A.** Its value is 83%.

**Q.** And the “% inhibition of the writhing reaction” value [1]?
**A.** The value was 52 (10) %.

**Q.** With CC1Cc2c([nH]c3ccc(F)cc23)C2(CCC(C(CCc3ccccc3)N(C)C)CC2)O1 (centres unmarked) [Compound 54, 6-Fluoro-3-methyl-1,1-[3-(dimethylamino-(phenylethyl)-methyl) -pentamethylene]-1,3,4,9-tetrahydropyrano[3,4-b]indole] as the compound, how does the “μ opioid receptor [1 μM], % inhibition” value (human μ opiate receptor) read?
**A.** The value was 21%.

**Q.** And the “Serotonin reuptake, % inhibition [10 μM]” value (Serotonin reuptake)?
**A.** The value was 55%.

**Q.** For Cc1ccc2[nH]c3c(c2c1)CC(C)OC31CCC(C(c2ccc(Cl)cc2)N(C)C)CC1 (centres unmarked) [Compound 44, 3,6-Dimethyl-1,1-[3-(dimethylamino-(4-chlorophenyl)-methyl) -pentamethylene]-1,3,4,9-tetrahydropyrano[3,4-b]indole], which inhibition at 1 µM (human μ opiate receptor) is on record?
**A.** Its inhibition at 1 µM is 72%.

**Q.** And the Ki (human μ opiate receptor)?
**A.** The Ki was 490 nM.

**Q.** And the “% inhibition of the writhing reaction” value [1]?
**A.** Its value is 48 (10) %.

**Q.** Which results are given for CN(C)C(c1ccccc1)C1CCC2(CC1)OCCc1c2[nH]c2ccc(F)cc12 (centres unmarked) [Compound 37, 6-Fluoro-1,1-[3-(dimethylamino-(phenyl)-methyl)-pentamethylene]-1,3,4,9-tetrahydro-pyrano[3,4-b]indole]?
**A.** inhibition at 1 µM (human μ opiate receptor): 74%; Ki (human μ opiate receptor): 37 nM; inhibition at 10 µM (Serotonin reuptake): 68%

**Q.** With Cc1ccc2[nH]c3c(c2c1)CC(C)OC31CCC(C(c2cccc(F)c2)N(C)C)CC1 (centres unmarked) [Compound 41, 3,6-Dimethyl-1,1-[3-(dimethylamino-(3-fluorophenyl)-methyl) -pentamethylene]-1,3,4,9-tetrahydropyrano[3,4-b]indole] as the compound, how does the inhibition at 1 µM (human μ opiate receptor) read?
**A.** Its inhibition at 1 µM is 88%.

**Q.** And the Ki (human μ opiate receptor)?
**A.** Its Ki is 300 nM.

**Q.** And the “% inhibition of the writhing reaction” value [1]?
**A.** Its value is 40 (10) %.

**Q.** With CC1Cc2c([nH]c3ccc(F)cc23)C2(CCC(C(c3cccc(F)c3)N(C)C)CC2)O1 (centres unmarked) [Compound 52, 6-Fluoro-3-methyl-1,1-[3-(dimethylamino-(3-fluorophenyl) -methyl)-pentamethylene]-1,3,4,9-tetrahydropyrano[3,4-b]indole] as the compound, how does the “μ opioid receptor [1 μM], % inhibition” value (human μ opiate receptor) read?
**A.** The value was 53%.

**Q.** And the “Serotonin reuptake, % inhibition [10 μM]” value (Serotonin reuptake)?
**A.** The value was 68%.
